Measured values as given in ChEMBL document CHEMBL6087399, “Extended structure-activity relationship studies of the [1,2,5]oxadiazolo[3,4-b]pyrazine-containing colistin adjuvants” (Bioorg Med Chem Lett, 2025).
Converted amounts (≈) assume the structure as drawn.

Key:
Escherichia coli [1] = experiment: Potentiation of colistin-induced antibacterial activity against Escherichia coli AR-0493 assessed as minimum re-sensitizing concentration; format: functional; details: read-out: MEC
Escherichia coli [2] = experiment: Antibacterial activity against Escherichia coli AR-0493 by CLSI based susceptibility testing method; format: functional
[3] = Selectivity index, ratio of GI50 for cytotoxicity against human HepG2 cells to MEC for potentiation of colistin-induced antibacterial activity against Escherichia coli AR-0493 assessed as minimum re-sensitizing concentration; format: toxicity, cell-based; details: read-out: Selectivity Index
[4] = Cytotoxicity against human HepG2 cells by Cell Titer Glo assay; format: toxicity, cell-based
Acinetobacter baumannii = experiment: Potentiation of colistin-induced antibacterial activity against Acinetobacter baumannii AR-0310 assessed as colistin MIC at 1 ug/ml; format: functional; details: dose 1 µg/ml
Escherichia coli [5] = experiment: Synergistic antibacterial activity against Escherichia coli AR-0493 assessed as fractional inhibitory concentration index in presence of colistin by Checkerboard broth microdilution assay; format: functional
Escherichia coli [6] = experiment: Potentiation of colistin-induced antibacterial activity against Escherichia coli AR-0538 harboring mcr-2 gene assessed as colistin MIC at 1 ug/ml; format: functional; details: dose 1 µg/ml
Salmonella typhimurium [7] = experiment: Potentiation of colistin-induced antibacterial activity against Salmonella typhimurium AR-0635 harboring mcr-4 gene assessed as colistin MIC at 1 ug/ml; format: functional, Salmonella enterica subsp. enterica serovar Typhimurium; details: Salmonella enterica, dose 1 µg/ml
Salmonella typhimurium [8] = experiment: Potentiation of colistin-induced antibacterial activity against Salmonella typhimurium AR-0539 harboring mcr-3 gene assessed as colistin MIC at 1 ug/ml; format: functional, Salmonella enterica subsp. enterica serovar Typhimurium; details: Salmonella enterica, dose 1 µg/ml
Klebsiella pneumoniae = experiment: Potentiation of colistin-induced antibacterial activity against Klebsiella pneumoniae AR-0497 harboring mcr-1 gene assessed as colistin MIC at 1 ug/ml; format: functional; details: dose 1 µg/ml
Escherichia coli [9] = experiment: Potentiation of colistin-induced antibacterial activity against Escherichia coli AR-0493 harboring mcr-1 gene assessed as colistin MIC at 1 ug/ml; format: functional; details: dose 1 µg/ml
Pseudomonas aeruginosa = experiment: Potentiation of colistin-induced antibacterial activity against Pseudomonas aeruginosa AR-0239 assessed as colistin MIC at 1 ug/ml; format: functional; details: dose 1 µg/ml

SMILES: c1ccc(CCNc2nc3nonc3nc2NCCc2ccccc2)cc1
- minimal effective concentration (Escherichia coli [1]): 2 µg/mL

SMILES: FC(F)(F)c1nc(NCCCNc2nc3nonc3nc2NCCCNc2ccc(Cl)c(C(F)(F)F)n2)ccc1Cl
- minimal effective concentration (Escherichia coli [1]): 0.25 µg/mL
- MIC (Escherichia coli [2]): > 64 µg/mL
- selectivity ratio [3]: 10
- GI50 [4]: 2.6 µg/mL (≈ 4.16 µM)

SMILES: CC(C)CCNc1nc2nonc2nc1Nc1cccc(Cl)c1
- minimal effective concentration (Escherichia coli [1]): 1 µg/mL

SMILES: CCCCCCCNc1nc2nonc2nc1NCCCCCCC
- minimal effective concentration (Escherichia coli [1]): 0.5 µg/mL
- MIC (Escherichia coli [2]): > 64 µg/mL
- selectivity ratio [3]: 1.3
- GI50 [4]: 0.65 µg/mL (≈ 1.87 µM)

SMILES: Clc1ccc(CNc2nc3nonc3nc2Nc2cccc(Cl)c2)cc1
- minimal effective concentration (Escherichia coli [1]): 0.25 µg/mL
- MIC (Escherichia coli [2]): > 64 µg/mL
- selectivity ratio [3]: 19
- GI50 [4]: 4.9 µg/mL (≈ 12.7 µM)

SMILES: Clc1cccc(Nc2nc3nonc3nc2NCCNc2ccc3ccccc3n2)c1
- minimal effective concentration (Escherichia coli [1]): 16 µg/mL

SMILES: CCCCCNc1nc2nonc2nc1NCCCCC
- minimal effective concentration (Escherichia coli [1]): 1 µg/mL

SMILES: CCCNc1nc2nonc2nc1Nc1cccc(Cl)c1
- minimal effective concentration (Escherichia coli [1]): 1 µg/mL

SMILES: CNc1nc2nonc2nc1Nc1cccc(Cl)c1
- minimal effective concentration (Escherichia coli [1]): 8 µg/mL

SMILES: CCCCCCNc1nc2nonc2nc1Nc1cccc(Cl)c1
- minimal effective concentration (Escherichia coli [1]): 1 µg/mL

SMILES: Clc1cccc(Nc2nc3nonc3nc2NCC2CC2)c1
- minimal effective concentration (Escherichia coli [1]): 1 µg/mL

SMILES: Clc1cccc(Nc2nc3nonc3nc2NC2CCC2)c1
- minimal effective concentration (Escherichia coli [1]): 1 µg/mL

SMILES: CC(C)(C)Nc1nc2nonc2nc1NC(C)(C)C
- minimal effective concentration (Escherichia coli [1]): 8 µg/mL

SMILES: CC(C)CNc1nc2nonc2nc1Nc1cccc(Cl)c1
- minimal effective concentration (Escherichia coli [1]): 2 µg/mL

SMILES: CC(C)(C)OC(=O)N1CC(CNc2nc3nonc3nc2Nc2cccc(Cl)c2)C1
- minimal effective concentration (Escherichia coli [1]): 4 µg/mL

SMILES: FC(F)CNc1nc2nonc2nc1Nc1cccc(Cl)c1
- minimal effective concentration (Escherichia coli [1]): 2 µg/mL

SMILES: FC(F)(F)c1nc(NCCCNc2nc3nonc3nc2Nc2cccc(Cl)c2)ccc1Cl
- MIC (Acinetobacter baumannii): 0.25 µg/mL
- fractional inhibitory concentration index (FICI) (Escherichia coli [5]): 0.039
- MIC (Escherichia coli [6]): 1 µg/mL
- MIC (Salmonella typhimurium [7]): 1 µg/mL
- MIC (Salmonella typhimurium [8]): 0.5 µg/mL
- MIC (Klebsiella pneumoniae): 1 µg/mL
- minimal effective concentration (Escherichia coli [1]): 0.25 µg/mL
- MIC (Escherichia coli [9]): 0.5 µg/mL
- MIC (Escherichia coli [2]): > 64 µg/mL
- MIC (Pseudomonas aeruginosa): 1 µg/mL
- selectivity ratio [3]: 35
- GI50 [4]: 8.7 µg/mL (≈ 17.4 µM)

SMILES: CCCCCCCCCCNc1nc2nonc2nc1NCCCCCCCCCC
- minimal effective concentration (Escherichia coli [1]): > 16 µg/mL

SMILES: CC(C)(C)Nc1nc2nonc2nc1Nc1cccc(Cl)c1
- minimal effective concentration (Escherichia coli [1]): 2 µg/mL

SMILES: Clc1cccc(Nc2nc3nonc3nc2Nc2cccc(Cl)c2)c1
- MIC (Acinetobacter baumannii): 0.25 µg/mL
- MIC (Escherichia coli [6]): 1 µg/mL
- MIC (Salmonella typhimurium [7]): 1 µg/mL
- MIC (Salmonella typhimurium [8]): 1 µg/mL
- MIC (Klebsiella pneumoniae): 1 µg/mL
- MIC (Escherichia coli [9]): 1 µg/mL
- MIC (Pseudomonas aeruginosa): 1 µg/mL

SMILES: Fc1cccc(CNc2nc3nonc3nc2NCc2cccc(F)c2)c1
- minimal effective concentration (Escherichia coli [1]): > 16 µg/mL

SMILES: Clc1cccc(Nc2nc3nonc3nc2NC2CCCC2)c1
- minimal effective concentration (Escherichia coli [1]): 1 µg/mL

SMILES: CCCCCCCCCCCCNc1nc2nonc2nc1Nc1cccc(Cl)c1
- minimal effective concentration (Escherichia coli [1]): > 16 µg/mL

SMILES: Clc1cccc(CNc2nc3nonc3nc2NCc2cccc(Cl)c2)c1
- minimal effective concentration (Escherichia coli [1]): 0.5 µg/mL
- MIC (Escherichia coli [2]): > 64 µg/mL
- selectivity ratio [3]: 3.2
- GI50 [4]: 1.6 µg/mL (≈ 3.99 µM)

SMILES: Fc1cccc(CNc2nc3nonc3nc2Nc2cccc(Cl)c2)c1
- minimal effective concentration (Escherichia coli [1]): 1 µg/mL

SMILES: CCCCCNc1nc2nonc2nc1Nc1cccc(Cl)c1
- minimal effective concentration (Escherichia coli [1]): 0.5 µg/mL
- MIC (Escherichia coli [2]): > 64 µg/mL
- selectivity ratio [3]: 4.3
- GI50 [4]: 2.1 µg/mL (≈ 6.31 µM)

SMILES: FC(F)(F)Oc1cccc(CNc2nc3nonc3nc2NCc2cccc(OC(F)(F)F)c2)c1
- minimal effective concentration (Escherichia coli [1]): 0.125 µg/mL
- MIC (Escherichia coli [2]): > 64 µg/mL
- selectivity ratio [3]: 18
- GI50 [4]: 2.3 µg/mL (≈ 4.6 µM)

SMILES: FC(F)(F)c1cccc(CNc2nc3nonc3nc2Nc2cccc(Cl)c2)c1
- minimal effective concentration (Escherichia coli [1]): 0.25 µg/mL
- MIC (Escherichia coli [2]): > 64 µg/mL
- selectivity ratio [3]: 22
- GI50 [4]: 5.5 µg/mL (≈ 13.1 µM)
